Blank lines part the entries; values can stand above or below the compound they belong to.
How the values were obtained:
bacteria = test: Bactericidal efficacy, summary over all bacteria and conditions; format: cell-based, Staphylococcus aureus and Pseudomonas aeruginosa
Procedure: (§1) The halogenated imidazolidin-4-one derivatives prepared as in examples 3, 5, and 6 (Compounds 1, 5, and 3, respectively) were tested as bactericides against the microorganisms Staphylococcus aureus (ATCC25923) and Pseudomonas aeruginosa (ATCC 27853) in demand-free water (DFW) as a function of pH and temperature and in a synthetic-demand water (SDW) at pH 9.5 and 4° C. The demand-free and synthetic-demand waters were prepared as described in examples 7 and 12, respectively.
(§2) For the bactericidal efficacy tests 50 milliliters of buffered DFW or SDW were placed in a 125 milliliter flask which was then inoculated with the organism to be tested such that the final density of the organism was about 1×10^6 cfu/ml (colony forming units per milliliter). The inoculated solution was allowed to equilibrate at the test temperature by immersion in a thermostated water bath for 15 minutes with constant stirring. Then an appropriate amount of an aqueous solution containing the test halogenated imidazolidin-4-one compound maintained at the same test temperature was added to the inoculated solution to bring the total concentration of potential positive halogen (Cl^+ or Cl^+ /Br^+) in the mixture to a predetermined level (10 parts per million and 5 parts per million Cl^+ from compounds 1 and 3; the molar equivalent in Cl^+ /Br^+ from Compound 5). 1 milliliter aliquots were removed from the test mixture at various predetermined times, and the active halogen was quenched by 1 milliliter portions of sterile 0.02 Normal sodium thiosulfate. Serial dilutions were made into sterile saline, and three 25 microliter aliquots of each of the resulting dilutions were applied to the dried surface of a Petri dish containing tryptic soy and nutrient agars for plating S. aureus and P. aeruginosa, respectively. After 48 hours at 37° C. the three replicates for each dilution were counted and averaged. This average was used to compute the cfu/ml for that particular aliquot. Inactivation of the organism was considered to be at least 99.9999 percent when no colonies were detected in the thiosulfate quenched aliquots.

[1] = tested on: Staphylococcus aureus (ATCC25923); test: Bactericidal efficacy, percent inactivation of S. aureus; format: cell-based; conditions: for killing at 5 ppm: DFW; for killing at 10 ppm: SDW
Procedure: as §1, §2

[2] = tested on: Pseudomonas aeruginosa (ATCC 27853); test: Bactericidal efficacy, percent inactivation of P. aeruginosa; format: cell-based; conditions: pH 7.0, 22° C., DFW
Procedure: as §1, §2

[3] = Stability in synthetic halogen demand water (SDW); format: physicochemical; conditions: 4° C.; for stability (in words): heavy halogen demand (SDW), pH 9.5; for remaining at 0.5 h: pH 9.5, 0.5 hrs; for remaining at 1 h: pH 9.5, 1.0 hrs; for remaining at 4 h: pH 9.5, 4.0 hrs
Procedure: A synthetic halogen demand water (SDW) was prepared by mixing the following substances with demand-free water (DFW): 375 milligrams per liter of each of the inorganic salts sodium chloride, potassium chloride, calcium chloride, and magnesium chloride; 50 milligrams per liter of Bentonite clay; 30 milligrams per liter of humic acid; 0.01 percent final concentration of heat-treated horse serum; and 5×10^5 cells per milliliter of heat-killed Saccharomyces cerevisiae yeast cells. The SDW solution was buffered with 0.01 Molar borate/sodium hydroxide to a pH of 9.5 and held at 4° C. during the experiments. The conditions of high ionic strength, turbidity, and organic material, and alkaline pH at low temperature, are viewed as a worst-case scenario for disinfection applications and thus should provide the optimum test of stability for the new compounds.
In separate flasks were dissolved compounds 1, 2, 3, and 5 to a starting concentration of 10 milligrams per liter total potential positive chlorine or its molar equivalent (16.25 milligrams per liter) in total potential positive halogen for Compound 5. Aliquots were withdrawn frequently over a period of more than 90 hours, and the percent positive halogen remaining was determined by standard iodometric titration.

[4] = Laboratory stability in halogen demand-free water (DFW), iodometric titration; format: physicochemical; conditions: for remaining at 23.52 h / remaining at 119.28 h / remaining at 168 h / remaining at 336 h / remaining at 504 h / remaining at 672 h / remaining at 840 h / remaining at 1008 h / remaining at 95.76 h: demand-free water
Procedure: The stability of 1,3-dichloro-2,2,5,5-tetramethylimidazolidin-4-one (Compound 1) in halogen demand-free water was determined at 22° C. and pH values of 4.5, 7.0, and 9.5, and the results were compared to those for free chlorine as supplied by calcium hypochlorite. The demand-free water (DFW) was prepared by chlorination of distilled, deionized water buffered to the appropriate pH followed by dechlorination (of the excess free chlorine) by exposure to direct sunlight until no free chlorine remained. This treatment insured that all halogen demand in the water was neutralized. Then Compound 1 and calcium hypochlorite were separately dissolved in identical DFW (buffered to an appropriate pH) solutions to the same final total chlorine concentrations (10 milligrams per liter potential positive chlorine). The solutions in separate flasks, which were stoppered with porous, sterile cotton plugs to allow free exchange with laboratory air, were then held at a constant temperature of 22° C. by means of a controlled water bath for a period of several weeks. Aliquots were withdrawn periodically (at least weekly), and the total positive chlorine remaining was determined in triplicate by standard iodometric titration. […]
The stabilities of 1,3-dibromo-2,2,5,5-tetramethylimidazolidin-4-one (Compound 4) and 1-bromo-3-chloro-2,2,5,5-tetramethylimidazolidin-4-one (Compound 5) in halogen demand-free water (DFW) were determined at 22° C. and pH values of 7.0 and 9.5 using the same procedures as discussed under example 9. Given the instability of Compound 1 at pH 4.5 (example 9), it was deemed unnecessary to test compounds 4 and 5 at that pH. The two compounds were dissolved in DFW buffered to the appropriate pH in separate flasks and held at a temperature of 22° C. by means of a constant temperature bath. The starting concentrations of total potential positive halogen in the two solutions were 22.6 milligrams per liter for Compound 4 and 16.25 milligrams per liter for Compound 5; these concentrations represent the molar equivalents in total potential positive halogen to that used for Compound 1 in example 9. The solutions were analyzed in the manner described in example 9.

[5] = ATCC25923, 5 min, pH 4.5, pH 4.5, 22° C., 5 minutes
[6] = ATCC25923, 5 min, pH 7, pH 7.0, 22° C., 5 minutes
[7] = ATCC25923, 5 min, pH 9.5, pH 9.5, 4° C., 5 minutes
[8] = ATCC25923, 5 min, pH 9.5, pH 9.5, 22° C., 5 minutes
[9] = ATCC25923, 10 min, pH 4.5, pH 4.5, 22° C., 10 minutes
[10] = ATCC25923, 10 min, pH 7, pH 7.0, 22° C., 10 minutes
[11] = ATCC25923, 10 min, pH 9.5, pH 9.5, 4° C., 10 minutes
[12] = ATCC25923, 10 min, pH 9.5, pH 9.5, 22° C., 10 minutes
[13] = synthetic halogen demand water, SDW, read-out: Percent Halogen Remaining

remaining at 0.008 h ([3]; synthetic halogen demand water, SDW, pH 9.5, 0.008 hrs, read-out: Percent Halogen Remaining): 64%
remaining at 0.167 h ([3]; synthetic halogen demand water, SDW, pH 9.5, 0.167 hrs, read-out: Percent Halogen Remaining): 49.9%
remaining at 0.5 h [3, 13]: 47.1%
remaining at 1 h [3, 13]: 47.4%
remaining at 4 h [3, 13]: 41.9%
remaining at 24 h ([3]; synthetic halogen demand water, SDW, pH 9.5, 24.0 hrs, read-out: Percent Halogen Remaining): 38.2%
remaining at 94 h ([3]; synthetic halogen demand water, SDW, pH 9.5, 94.0 hrs, read-out: Percent Halogen Remaining): 31.8%
remaining at 23.52 h ([4]; pH 7): 97.3%
remaining at 119.28 h ([4]; pH 7): 95.4%
remaining at 168 h ([4]; pH 7): 91.7%
remaining at 336 h ([4]; pH 7): 88.2%
remaining at 504 h ([4]; pH 7): 75%
remaining at 672 h ([4]; pH 7): 45.9%
remaining at 840 h ([4]; pH 7): 17.5%
remaining at 1008 h ([4]; pH 7): 7.6%
remaining at 23.52 h ([4]; pH 9.5): 96.3%
remaining at 119.28 h ([4]; pH 9.5): 89.5%
remaining at 168 h ([4]; pH 9.5): 88.3%
remaining at 336 h ([4]; pH 9.5): 86.3%
remaining at 504 h ([4]; pH 9.5): 70.8%
remaining at 672 h ([4]; pH 9.5): 60.8%
remaining at 840 h ([4]; pH 9.5): 46.8%
remaining at 1008 h ([4]; pH 9.5): 38.4%
SMILES: CC1(C)C(=O)N(Cl)C(C)(C)N1Br [Compound 5, 1-bromo-3-chloro-2,2,5,5-tetramethylimidazolidin-4-one]
reduction of bacteria (bacteria; all conditions, less than or equal 5 minutes of contact time, even in SDW): greater than 99.9999%
killing at 5 ppm [1, 5]: > 100%
killing at 5 ppm [1, 6]: > 100%
killing at 5 ppm [1, 7]: > 100%
killing at 10 ppm [1, 7]: > 100%
killing at 5 ppm [1, 8]: > 100%
killing at 5 ppm [1, 9]: > 100%
killing at 5 ppm [1, 10]: > 100%
killing at 5 ppm [1, 11]: > 100%
killing at 10 ppm [1, 11]: > 100%
killing at 5 ppm [1, 12]: > 100%
killing at 5 ppm ([2]; ATCC27853, 5 min, 5 minutes): > 100%
killing at 5 ppm ([2]; ATCC27853, 10 min, 10 minutes): > 100%
stability (in words) [3]: comparable in stability to free chlorine under these conditions
stability (in words), against free chlorine ([4]; pH 9.5): comparable in stability to free chlorine (see data in example 9) at pH 9.5 only

remaining at 0.083 h ([3]; synthetic halogen demand water, SDW, pH 9.5, 0.083 hrs, read-out: Percent Halogen Remaining): 98.8%
remaining at 0.25 h ([3]; synthetic halogen demand water, SDW, pH 9.5, 0.25 hrs, read-out: Percent Halogen Remaining): 98.8%
remaining at 0.5 h [3, 13]: 93.1%
remaining at 1 h [3, 13]: 92.4%
remaining at 2 h ([3]; synthetic halogen demand water, SDW, pH 9.5, 2.0 hrs, read-out: Percent Halogen Remaining): 92.4%
remaining at 4 h [3, 13]: 88.8%
remaining at 25 h ([3]; synthetic halogen demand water, SDW, pH 9.5, 25.0 hrs, read-out: Percent Halogen Remaining): 71.4%
remaining at 93 h ([3]; synthetic halogen demand water, SDW, pH 9.5, 93.0 hrs, read-out: Percent Halogen Remaining): 60.2%
remaining at 23.52 h ([4]; pH 4.5): 100%
remaining at 95.76 h ([4]; pH 4.5): 88.9%
remaining at 168 h ([4]; pH 4.5): 77.6%
remaining at 336 h ([4]; pH 4.5): 55.5%
remaining at 504 h ([4]; pH 4.5): 40.4%
remaining at 672 h ([4]; pH 4.5): 30.7%
remaining at 840 h ([4]; pH 4.5): 26%
remaining at 1008 h ([4]; pH 4.5): 23.5%
remaining at 168 h ([4]; pH 7): 97.1%
remaining at 336 h ([4]; pH 7): 95%
remaining at 504 h ([4]; pH 7): 93.5%
remaining at 672 h ([4]; pH 7): 90.6%
remaining at 840 h ([4]; pH 7): 86%
remaining at 1008 h ([4]; pH 7): 83.4%
remaining at 23.52 h ([4]; pH 9.5): 96.5%
remaining at 95.76 h ([4]; pH 9.5): 98.9%
remaining at 168 h ([4]; pH 9.5): 95.1%
remaining at 336 h ([4]; pH 9.5): 89.4%
remaining at 504 h ([4]; pH 9.5): 82.6%
remaining at 672 h ([4]; pH 9.5): 72.3%
remaining at 840 h ([4]; pH 9.5): 63.7%
remaining at 1008 h ([4]; pH 9.5): 55.1%
stability (in words) ([4]; pH 4.5): rather unstable in acidic DFW (pH 4.5)
SMILES: CC1(C)C(=O)N(Cl)C(C)(C)N1Cl [Compound 1, 1,3-dichloro-2,2,5,5-tetramethylimidazolidin-4-one]
bactericidal efficiency (in words) (bacteria; Table V conditions): reasonably efficient as a bactericide
killing at 5 ppm [1, 5]: 100%
killing at 5 ppm [1, 6]: 89.1%
killing at 5 ppm [1, 7]: 71.3%
killing at 10 ppm [1, 7]: 43.8%
killing at 5 ppm [1, 8]: > 100%
killing at 5 ppm [1, 9]: > 100%
killing at 5 ppm [1, 10]: 99.1%
killing at 5 ppm [1, 11]: 80.9%
killing at 10 ppm [1, 11]: 68.1%
killing at 5 ppm [1, 12]: > 100%
killing at 5 ppm ([2]; ATCC27853, 5 min, 5 minutes): > 100%
killing at 5 ppm ([2]; ATCC27853, 10 min, 10 minutes): > 100%
stability (in words) [3]: much more stable under these conditions than is free chlorine
stability (in words), against Compounds 4 and 5 [4]: considerably more stable in DFW at pH values of 7.0 and 9.5 and 22 °C than are Compounds 4 and 5
stability (in words) ([4]; pH 7): considerably more stable in DFW at pH 7.0 at 22 °C than is free chlorine
stability (in words), against free chlorine ([4]; pH 9.5): more stable than free chlorine in alkaline DFW (pH 9.5)
